Molecules are shown by their SMILES. “Also recorded” adds a separate entry of the source.

Series [1] deals with HepG2 liver cancer cells. The experiment in a line: PARP cleavage and caspase-8 activation with TNFα by immunoblotting. Type of series: cell-based. The note with it: HepG2 (K-80003: HepG2 and PC3) cells, TNFα 10 ng/ml. On the procedure: (§1) ZR-75-1 cells were treated with TNFα and/or Sulindac (75 μM) or K-80003 (50 μM) for 6 hr and analyzed by immunoblotting.
HepG2 cells cultured in medium with 1% FBS were treated with SR11237 (1 μM) for 1 hr, then TNFα (10 ng/ml) and/or Sulindac (75 μM) for 4 hr, and analyzed by immunoblotting. HepG2 cells transfected with control or RXRα siRNA were treated with TNFα and/or Sulindac and analyzed by immunoblotting.
(In general: In western blotting, separated proteins are transferred to a membrane and probed.)

For series [2], the system named is AKT. In words: TNFα-induced AKT activation by immunoblotting. It counts as cell-based. On the procedure: MEF and MCF-7 cells were starved overnight, pretreated with Sulindac for 1 hr, and stimulated with EGF (100 ng/ml) for 15 min. AKT activation was analyzed by immunoblotting (FIG. 12A). MEF and Caco-2 cells were starved overnight and pretreated with Sulindac for 30 min before exposure to all-trans-retinoic acid (ATRA) (10^−7 M) for 30 min and analyzed for AKT activation (FIG. 12B). AKT activation in ZR-75-1 breast cancer cells transfected with RXRα siRNA for 48 hr before exposure to 9-cis-RA (10^−7 M) for 30 min was also analyzed by immunoblotting (FIG. 12C). A549 lung cancer cells transfected with RXRα or control siRNA (FIG. 3C) and ZR-75-1 and PC3 cells (FIG. 3D) were pretreated with Sulindac (100 μM) for 1 hr before exposure to TNFα (10 ng/ml) for 30 min and analyzed for AKT activation and RXRα expression by immunoblotting.
For immunoblotting, cell lysates were boiled in SDS sample buffer, resolved by SDS-polyacrylamide gel electrophoresis, and transferred to nitrocellulose. After transfer, the membranes were blocked in 5% milk in TBST (10 mM Tris-HCl, pH. 8.0, 150 mM NaCl, 0.05% Tween 20) containing antibody. The membranes were then washed three times with TBST, then incubated for 1 hr at room temperature in 5% milk in TBST containing horseradish peroxide-linked anti-immunoglobulin.

Series [3] relates to ZR-75-1 cells. In words: PARP cleavage with TNFα by immunoblotting. Type of series: cell-based, human. The settings on record: K-80003 50 μM, Sulindac 75 μM, 6 hr. On the procedure: as §1
Series [4] is described as follows: Preclinical bioavailability and pharmacokinetics. It counts as in vivo. On the procedure:
Preclinical studies of K-80003 were performed, including the investigation of toxicity, bioavailability, and pharmacokinetics.

Series [5] relates to HeLa/RXRα/1-134 stable clone. The experiment in a line: Colony formation (clonogenic survival) assay. Type of series: cell-based. The settings on record: HeLa/RXRα/1-134 stable clone (also RXRα/Δ80 stable clones). The procedure: HeLa RXR/α1-134 stable clone and control HeLa cells were seeded in 6-well plate, 350 cells/well. Five days later, cells were treated with Sulindac (50 μM) and K-80003 (25 μM) in 0.5% serum medium for 3 days. After washed with PBS, cells were fixed with 4% paraformaldehyde in PBS for 20 min. Colonies were stained with 0.1% crystal violet for 30 min, and pictures were taken and colonies were counted.

The target in series [6] is T1, RXRα ligand-binding domain (LBD) (Homo sapiens, UniProt P19793).
T1 construct: made in house
T1 sequence (P19793 223-462): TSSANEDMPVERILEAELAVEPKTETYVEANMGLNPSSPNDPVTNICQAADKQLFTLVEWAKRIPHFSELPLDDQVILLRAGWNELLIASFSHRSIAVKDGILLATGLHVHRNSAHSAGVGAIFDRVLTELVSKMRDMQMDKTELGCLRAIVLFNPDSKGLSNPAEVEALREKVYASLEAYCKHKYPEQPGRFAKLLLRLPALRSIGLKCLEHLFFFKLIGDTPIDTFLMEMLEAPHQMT
The experiment in a line: Competitive ligand-binding assay with [3H]9-cis-RA. The procedure: Competitive ligand-binding assays (FIG. 1A) and HPLC analysis of Sulindac binding to RXRα, Nur77, or RARβ in HEK293T cells (FIG. 1B) were performed. RXRα LBD protein was incubated with [^3H]9-cis-RA in the presence or absence of Sulindac or unlabeled 9-cis-RA. Bound [^3H]9-cis-RA was quantitated by liquid scintillation counting (FIG. 1A). HEK293T cells stably expressing RXRαfused to a C-terminal TAP tag (Stratagene, La Jolla, Calif.) were treated with or without 100 μM sulindac sulfide for 3 hr. After treatment, cells were purified and analyzed by HPLC for the presence of sulindac sulfide. A standard solution of sulindac sulfide was used to obtain the calibration curve. Characteristic peak spectrum and retention time was used for identification, and peak areas at max used for quantification were calculated (FIGS. 1B and 10). Sulindac sulfide bound to RXRα with an IC50 of 80 μM (FIG. 1A), which is in the concentration range that induces apoptosis.
Bacterially expressed His-tagged RXRα ligand-binding domain (LBD) (aa 223-462) was incubated with [^3H]-9-cis-RA (Amersham Biosciences, Amersham, UK) in ligand binding assay buffer in the presence or absence of various concentrations of unlabeled 9-cis-RA or sulindac sulfide. […] Bound radiolabeled 9-cis-RA was determined in a scintillation counter as described (Kolluri, S. K. et al., Proc Natl Acad Sci USA 102 (7), 2525-2530 (2005)).

The test system of series [7] is interaction of p85α with tRXRα and/or RXRα. In words: Co-immunoprecipitation with ΔN197 anti-RXRα antibody. It counts as cell-based. The note with it: TNFα-enhanced. The procedure: RXRα interaction with p85α was examined. Anti-RXRα […]antibodies (Santa Cruz Biotechnology, Santa Cruz, Calif.) were used in co-immunoprecipitation (Co-IP) and Western blotting (WB) assays. BHK cells were treated with ATRA (10^−7 M) for 30 min. Lysates were prepared and analyzed for RXRα-p85α interaction using either D20 anti-RXRα or ΔN197 anti-RXRα antibody (FIG. 12D).
For the CoIP assay, cells or cells transfected with indicated expression vectors were suspended in lysis buffer (50 mM Tris-HCl, pH 7.4; 150 mM NaCl; 20 mM EDTA; 1% NP-40; 1 mM PMSF; […] Leupeptin; […] Aprotinin; 0.1 mM Na3VO4; and 1 mM DTT). Cell extracts were cleared by incubation with the Protein A/G plus Agarose beads (Santa Cruz Biotechnology, Santa Cruz, Calif.) and then incubated with appropriate antibody and […] of Protein A or G plus Agarose beads overnight at 4° C. Beads were then washed and boiled in Laemmli gel-loading solution before performing SDS-PAGE/immunoblotting using polyclonal or monoclonal antibodies. Immunoreactive products were detected by chemiluminescence with an enhanced chemiluminescence system (ECL™) (Amersham Biosciences, Amersham, UK).

Series [8] has as its target RARγ protein (Homo sapiens, UniProt P13631). In words: Ligand-binding assay with [3H]all-trans-RA. The note with it: competition with [3H]all-trans-RA. The procedure:
Purified RARγ protein was incubated with [^3H]all-trans-RA in the presence or absence of Sulindac or unlabeled all-trans RA. Bound [^3H]all-trans-RA was quantitated by liquid scintillation counting.

Chain of RARγ protein (P13631 whole entry, species assumed): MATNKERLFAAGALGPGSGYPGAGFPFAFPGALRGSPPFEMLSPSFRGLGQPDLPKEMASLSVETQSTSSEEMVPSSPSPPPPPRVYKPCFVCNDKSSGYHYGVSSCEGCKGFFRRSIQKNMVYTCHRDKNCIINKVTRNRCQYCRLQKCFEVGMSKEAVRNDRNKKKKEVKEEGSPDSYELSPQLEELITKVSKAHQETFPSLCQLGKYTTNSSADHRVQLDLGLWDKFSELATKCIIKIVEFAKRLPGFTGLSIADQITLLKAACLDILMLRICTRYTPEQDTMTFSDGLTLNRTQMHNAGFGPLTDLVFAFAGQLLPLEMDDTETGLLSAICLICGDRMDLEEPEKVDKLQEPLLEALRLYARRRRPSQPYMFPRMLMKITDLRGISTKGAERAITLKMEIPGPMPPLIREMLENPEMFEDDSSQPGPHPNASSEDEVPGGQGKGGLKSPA

For `CC1=C(CC(=O)O)c2cc(F)ccc2/C1=C\c1ccc(C(C)C)cc1` [K-80003, (Z)-2-(3-(4-Iso-propylbenzylidene)-6-fluoro-2-methyl-3H-inden-1-yl)acetic acid], in series [1], the “PARP cleavage and caspase-8 activation, combination with TNFα” value was “synergistically induced PARP cleavage and caspase-8 activation”. The “inhibition of TNFα-induced AKT activation, compared with Sulindac” value in series [2] (50 μM each) is listed as “much more effective than Sulindac”. In addition, the “induction of PARP cleavage together with TNFα, compared with Sulindac” value in series [3] was “more effective than Sulindac”. The bioavailability result in series [4] (oral compared to intravenous formulation) is listed as “increased bioavailaility in oral compared to intravenous formulation”. In series [4] (preclinical study), the PK profiles entry was “desirable PK profiles”. Further, the “inhibition of colony formation” value in series [5] is listed as “much more effective than Sulindac; also recorded: almost completely suppressed”. The “RXRα-binding activity, fold higher than Sulindac” value in series [6] (competition ligand-binding assay) was “about 34 fold”.
Broadly, the IC50 is the point on the concentration scale where inhibition reaches its midpoint. Take `CSc1ccc(/C=C2/C(C)=C(CC(=O)O)c3cc(F)ccc32)cc1` [Sulindac, (Z)-2-(3-(4-(Methylthio)benzylidene)-6-fluoro-2-methyl-3H-inden-1-yl)acetic acid]: the “interaction of p85α with tRXRα and/or RXRα” value in series [7] is listed as “inhibited”. Besides, the “PARP cleavage and caspase-8 activation, combination with TNFα” value in series [1] was “effectively induced PARP cleavage and caspase-8 activation”. Besides, in series [2] (A549 lung cancer cells, 100 μM, TNFα 10 ng/ml), the “inhibition of TNFα-induced AKT activation” value is reported as “potently inhibited”. Further, the “inhibition of AKT activation, Sulindac alone” value in series [2] (ZR-75-1 and PC3 cells (high basal AKT activation)) is “little inhibitory effect”. The “inhibition of AKT activation, combination with TNFα” value in series [2] (ZR-75-1 and PC3 cells, 100 μM, TNFα 10 ng/ml) is given as “almost completely”. Also, the “binding to RARγ” value in series [8] is recorded as “did not bind”. The “inhibition of colony formation” value in series [5] is “strongly inhibited”. The IC50 in series [6] (competition with [3H]9-cis-RA on RXRα LBD protein) was 80 µM.
